The values below come from ChEMBL document CHEMBL1201862, “PubChem BioAssay data set” (2004).

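Five concentrations, 48 hours, 96-well plates. Here, GI50 denotes the concentration required for 50% inhibition of growth.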 Active and inactive are the calls of the source. No stated cut-off is given here; in the data, active = GI50 up to about 1.1 µM and inactive = higher. Peptide text beside a SMILES is read from it. * marks the point of attachment. Boc = CC(C)(C)OC(=O)*

Holding throughout (experiment): NCI anticancer screen, dose series, 48 h
In test [1] the test system is A498.
Test [2] concerns A549.
Test [3] concerns BT-549.
The test system of test [4] is DU-145.
Test [5] concerns HCC 2998.
Test [6] relates to HCT-116.
The test system of test [7] is HCT-15.
In test [8] the test system is HOP-92.
Test [9] concerns HT-29.
In test [10] the test system is Hs-578T.
Test [11] concerns K562.
The subject of test [12] is MDA-MB-231.
Test [13] has as its system NCI-H522.
The test system of test [14] is OVCAR-3.
For test [15], the system named is OVCAR-8.
In test [16] the test system is SF-268.
In test [17] the test system is SF-295.
Test [18] concerns SK-MEL-5.
Test [19] has as its system T47D.
For test [20], the system named is UACC-62.

Take `Cc1ccc(S(=O)(=O)NNC2(NS(=O)(=O)c3ccc(Cl)cc3)C(Cl)=C(Cl)C(=O)c3ccccc32)cc1` (stereo not given): the GI50 in [1] is 17.8 µM (inactive); in [2] it was 16.9 µM (inactive); in test [3], 14.9 µM (inactive); in [4] it was 18.5 µM (inactive); in [5], 18.5 µM (inactive); in test [6], 17.9 µM (inactive). Moreover, the GI50 in test [7] was 24.4 µM; in [8], 17.3 µM (inactive); in [9], 19.1 µM (inactive); in test [10], 17.2 µM (inactive); in [11] it was 7.93 µM (inactive); in [12] it was 19 µM (inactive). Moreover, the GI50 in test [13] was 21.7 µM (inactive); in test [14], 16.4 µM (inactive); in test [15], 21.6 µM (inactive); in test [16], 14 µM (inactive); in [17] it was 20.9 µM (inactive); in [18], 15.2 µM (inactive). Also, the GI50 in test [19] was 28.3 µM (inactive); in test [20] it was 16.6 µM (inactive).
On to `O=C1CCC2C(O)c3cc4c(cc3C(c3ccc5c(c3)OCO5)N12)OCO4` (stereo not given), for which the GI50 in test [1] is > 100 µM (inactive); in [2] it was > 100 µM (inactive); in test [3] it was 47.6 µM (inactive); in test [4], > 100 µM (inactive); in test [5], > 100 µM (inactive); in [6], > 100 µM (inactive). In addition, the GI50 is more than 100 µM in test [7]; 35.2 µM (inactive) in test [8]; > 100 µM (inactive) in [9]; 24.4 µM (inactive) in test [10]; > 100 µM (inactive) in [11]; > 100 µM (inactive) in test [12]. Also, the GI50 in [13] was 89.5 µM (inactive); in test [14], > 100 µM (inactive); in [15] it was 35.6 µM (inactive); in test [16], 19.2 µM (inactive); in test [17], 49.2 µM (inactive); in test [18] it was > 100 µM (inactive). The GI50 in test [19] and in test [20] was > 100 µM (inactive) throughout.
`CSc1ccc(/C=C2\N=C(c3ccccc3)N(c3nc4ccc(Sc5ccccc5)cc4[nH]3)C2=O)cc1`: the GI50 was 18.2 µM (inactive) in test [1]; 35.5 µM (inactive) in [2]; 18.3 µM (inactive) in test [3]; 27.6 µM (inactive) in test [4]; 16.7 µM (inactive) in test [5]; 14.7 µM (inactive) in [6]. In addition, the GI50 in test [7] was 18.2 µM; in test [8], 33.6 µM (inactive); in test [9] it was 17.5 µM (inactive); in [10], 18.6 µM (inactive); in test [11] it was 14 µM (inactive); in test [12], 18.3 µM (inactive). The GI50 in test [13] was 15.9 µM (inactive); in test [14], 2.01 µM (inactive); in [15], 28.2 µM (inactive); in test [16], 27.6 µM (inactive); in [17], 14.3 µM (inactive); in test [18], 13.3 µM (inactive). For the same compound, the GI50 is 20.5 µM (inactive) in [19] and 14.2 µM (inactive) in [20].
Take `COCN1CCN=c2c1c1c3c(c4ccccc4n23)CCC1`: the GI50 in test [1], in test [2], in test [3], in test [4], in [5] and in test [6] was > 100 µM (inactive) each time. The GI50 in test [7] was more than 100 µM; in [8] it was > 100 µM (inactive); in test [9], > 100 µM (inactive); in test [10] it was > 100 µM (inactive); in test [11] it was > 100 µM (inactive); in test [12], > 100 µM (inactive). Moreover, the GI50 in test [13], in test [14], in test [15], in [16], in [17] and in test [18] was > 100 µM (inactive) in each case. The GI50 in test [19] and in [20] was > 100 µM (inactive) each time.
Take `CC(C)C[C@H](NC(=O)CCc1ccccc1)B(O)O`: the GI50 in test [1] is 3.19 µM (inactive); in test [2], 35.4 µM (inactive); in test [3], 17.5 µM (inactive); in test [4], 60.8 µM (inactive); in test [5], 13.7 µM (inactive); in test [6], 5.87 µM (inactive). In addition, the GI50 in test [7] is 17.3 µM; in [8], 29.4 µM (inactive); in test [9], 2.85 µM (inactive); in test [10], 5.78 µM (inactive); in test [11], 17.6 µM (inactive); in test [12], 17.7 µM (inactive). In addition, the GI50 in test [13] was 11.7 µM (inactive); in test [14], 3.63 µM (inactive); in [15] it was 19.7 µM (inactive); in [16] it was 10.1 µM (inactive); in [17] it was 12 µM (inactive); in test [18], 8.45 µM (inactive). Also, the GI50 is 18.7 µM (inactive) in test [19] and 14.8 µM (inactive) in test [20].
Consider `Cc1cccc2c1CC(C1OC(=O)c3c(C)cccc31)C2=O` (stereo not given), for which the GI50 in test [1], in [2], in test [3], in test [4], in test [5] and in [6] was > 100 µM (inactive) in each case. For the same compound, the GI50 in [7] was more than 100 µM; in [8] it was > 100 µM (inactive); in test [9], > 100 µM (inactive); in test [10], > 100 µM (inactive); in test [11], > 100 µM (inactive); in test [12] it was > 100 µM (inactive). Moreover, the GI50 is 15.7 µM (inactive) in test [13]; > 100 µM (inactive) in test [14]; > 100 µM (inactive) in test [15]; > 100 µM (inactive) in test [16]; > 100 µM (inactive) in test [17]; > 100 µM (inactive) in test [18]. The GI50 in test [19] and in test [20] was > 100 µM (inactive) each time.
Turning to `COC(=O)C(Cc1ccccc1)NC(=O)C(CS)NC(=O)OC(C)(C)C` (stereo not drawn) (Boc-Cys-Phe-OMe; configuration not given here), the GI50 in test [1] is > 100 µM (inactive); in test [2] it was > 100 µM (inactive); in [3], > 100 µM (inactive); in test [4] it was > 100 µM (inactive); in [5], > 100 µM (inactive); in [6] it was 41.9 µM (inactive). The GI50 in [7] was more than 100 µM; in test [8], > 100 µM (inactive); in test [9], 99.3 µM (inactive); in test [10], > 100 µM (inactive); in test [11], 38.2 µM (inactive); in [12], 26.9 µM (inactive). Moreover, the GI50 in test [13] was > 100 µM (inactive); in test [14], 88.1 µM (inactive); in test [15], > 100 µM (inactive); in test [16] it was > 100 µM (inactive); in test [17], > 100 µM (inactive); in test [18], > 100 µM (inactive). Also, the GI50 in test [19] and in [20] was > 100 µM (inactive) each time.
Turning to `CC(C)(Oc1ccc(-c2cccc3ccccc23)cc1)C(=O)O`, the GI50 in [1] is > 100 µM (inactive); in test [2], 59.6 µM (inactive); in test [3], > 100 µM (inactive); in [4], > 100 µM (inactive); in [5], > 100 µM (inactive); in [6], > 100 µM (inactive). For the same compound, the GI50 in [7] is 77.3 µM; in test [8] it was > 100 µM (inactive); in [9], > 100 µM (inactive); in test [10], > 100 µM (inactive); in [11], 1.3 µM (inactive); in [12], > 100 µM (inactive). The GI50 in [13] was > 100 µM (inactive); in test [14] it was > 100 µM (inactive); in test [15], > 100 µM (inactive); in test [16], > 100 µM (inactive); in [17], 60.4 µM (inactive); in test [18] it was 99.5 µM (inactive). In addition, the GI50 in test [19] is 80.2 µM (inactive); in test [20], > 100 µM (inactive).
For `CCOC(=O)c1nc2cc(F)c(N3CCOCC3)cc2[nH]c1=O`, the GI50 in test [1], in test [2], in test [3], in test [4], in test [5] and in [6] was > 100 µM (inactive) each time. The GI50 in test [7] is more than 100 µM; in [8], > 100 µM (inactive); in [9] it was > 100 µM (inactive); in test [10], 56.1 µM (inactive); in test [11], > 100 µM (inactive); in [12], > 100 µM (inactive). In addition, the GI50 in test [13] is 76 µM (inactive); in test [14], > 100 µM (inactive); in test [15], > 100 µM (inactive); in test [16] it was > 100 µM (inactive); in [17] it was > 100 µM (inactive); in [18] it was > 100 µM (inactive). The GI50 in [19] and in test [20] was > 100 µM (inactive) throughout.
As for `CCOC(=O)c1ccc(/N=C/C=C(\Nc2ccc(C(=O)OCC)cc2)C23CC4CC(CC(C4)C2)C3)cc1`, the GI50 in [1] was 38.4 µM (inactive); in test [2], 50.6 µM (inactive); in test [3], > 100 µM (inactive); in test [4] it was 55.1 µM (inactive); in [5] it was 91.2 µM (inactive); in test [6], 56.5 µM (inactive). Besides, the GI50 in test [7] was 92.3 µM; in test [8], 15.8 µM (inactive); in test [9], 26.5 µM (inactive); in test [10] it was > 100 µM (inactive); in test [11], 4.05 µM (inactive); in test [12], > 100 µM (inactive). Further, the GI50 in [13] is > 100 µM (inactive); in test [14], > 100 µM (inactive); in test [15], 44.3 µM (inactive); in test [16] it was > 100 µM (inactive); in test [17], 52.1 µM (inactive); in test [18] it was 30.6 µM (inactive). Moreover, the values for the GI50 in test [19] and in test [20] were 18.3 µM (inactive) and 31 µM (inactive), respectively.
